Key:
[1] = target: T1, BmFADH (Burkholderia multivorans, UniProt A0A0H3KP42); experiment: NADH consumption at […] nm; format: biochemical; conditions: 1 mM NADH, 5 mM NaMeO2, 50 mM phosphate pH 7.5, 2 h
T1 construct: gene fdhA2; recombinant in E. coli BL21(DE3), pETDuet, C-terminal His-tag; Zn2+ dependent
T1 sequence (A0A0H3KP42 1-398): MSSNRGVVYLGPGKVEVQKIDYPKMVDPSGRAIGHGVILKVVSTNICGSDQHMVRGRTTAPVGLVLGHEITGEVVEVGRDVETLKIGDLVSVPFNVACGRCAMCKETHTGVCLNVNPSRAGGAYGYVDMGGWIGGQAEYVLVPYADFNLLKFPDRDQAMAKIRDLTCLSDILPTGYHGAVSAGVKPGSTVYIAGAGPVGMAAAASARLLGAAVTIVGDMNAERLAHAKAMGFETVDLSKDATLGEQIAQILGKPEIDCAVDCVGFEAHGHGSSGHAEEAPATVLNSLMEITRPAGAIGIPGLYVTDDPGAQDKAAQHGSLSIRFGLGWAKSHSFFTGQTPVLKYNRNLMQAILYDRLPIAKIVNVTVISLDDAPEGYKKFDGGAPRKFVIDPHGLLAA

[2] = tested on: T2, GoADH; experiment: steady-state kinetics, Michaelis-Menten fit; format: biochemical, Gluconobacter oxydans; conditions: NADH co-substrate; free enzyme; glycolaldehyde reduction
T2 construct: gene adh; recombinant in E. coli BL21(DE3), pETDuet, C-terminal His-tag; codon-optimized gene; Zn2+ dependent

SMILES | NADH consumption at 340 nm [1] | Km [2] [µM]
NC(=O)C1=CN([C@@H]2O[C@H](COP(=O)(O)OP(=O)(O)OC[C@H]3O[C@@H](n4cnc5c(N)ncnc54)[C@H](O)[C@@H]3O)[C@@H](O)[C@H]2O)C=CC1 [NADH] | activity of PaFDH, BmFADH, and GoADH was determined by measuring the consumed NADH | –
O=CCO [glycolaldehyde] | – | 432

— PMC11538636, “Electro‐Driven Multi‐Enzymatic Cascade Conversion of CO2 to Ethylene Glycol in Nano‐Reactor” (Advanced Science, 2024)
